Measured values published in BindingDB's records for doi:10.1021/jm9910371 (Uppsala University, 1999).

Molecular target: T1, Dimer of Gag-Pol polyprotein [501-599] (Human immunodeficiency virus 1, UniProt P03367)
T1 construct: 501-599
Experiment: Protease Inhibition Assay
Details: pH 5; 30 °C
Protocol: Ki values were determined by using a fluorescent substrate (DABCYL-gamma-Abu-[…]EDANS). All incubations were performed at 30°C in 0.1 M sodium acetate 1 M NaCl 1 mM DTT 1 mM EDTA 3% DMSO (pH 5.0) by using 5 uM substrate and the indicated enzyme concentrations ([E]). The enzyme concentration (A280) was determined by absorption measurements.

Row | Structure (SMILES) | Ki [nM]
1 | CNC(=O)[C@@H](NC(=O)[C@H](OCc1ccccc1)[C@H](O)[C@@H](O)[C@@H](OCc1ccccc1)C(=O)N[C@H](C(=O)NC)C(C)C)C(C)C [1-Valine Methylamide deriv. 1] | 0.4
2 | CNC(=O)[C@@H](NC(=O)[C@H](OCc1ccc(C2CCCC(=O)C2=O)cc1)[C@H](O)[C@@H](O)[C@@H](OCc1ccc(C2CCCC(=O)C2=O)cc1)C(=O)N[C@H](C(=O)NC)C(C)C)C(C)C (stereo partly drawn) [N1,N6-Bis[(1S)-2-methyl-1-(methylcarbamoyl)pro-pyl](2R,3R,4R,5R)-2,5-bis[4-(3-cyclohexane-1,2-dionyl)benzyloxy]-3,4-dihydroxyhexanediamide] | 0.3
